Assay results published in ChEMBL document CHEMBL4840301, “Homophymamide A, Heterodetic Cyclic Tetrapeptide from a Homophymia sp. Marine Sponge: A Cautionary Note on Configurational Assignment of Peptides That Contain a Ureido Linkage” (J Nat Prod, 2021).

Biological target: T1, Carboxypeptidase B (Sus scrofa, UniProt P09955)
T1 sequence (P09955 whole entry): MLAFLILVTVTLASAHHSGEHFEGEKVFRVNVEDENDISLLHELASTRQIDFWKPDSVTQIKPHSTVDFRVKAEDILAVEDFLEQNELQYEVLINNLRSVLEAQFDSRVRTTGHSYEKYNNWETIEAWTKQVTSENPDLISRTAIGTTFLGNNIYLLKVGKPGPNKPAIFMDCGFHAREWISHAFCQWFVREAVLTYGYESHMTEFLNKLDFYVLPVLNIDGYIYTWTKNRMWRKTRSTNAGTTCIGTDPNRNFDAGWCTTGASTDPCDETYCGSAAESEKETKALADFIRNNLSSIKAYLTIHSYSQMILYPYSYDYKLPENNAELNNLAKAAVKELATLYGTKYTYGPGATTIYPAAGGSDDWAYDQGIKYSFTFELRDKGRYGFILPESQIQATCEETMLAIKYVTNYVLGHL
Test: Inhibition of carboxypeptidase B in porcine pancreas using hippuryl-L-Arg as substrate preincubated with substrate for 2 mins followed by enzyme addition and measured after 5 mins by colorimetric method
Type: tissue-based

CC[C@H](C)[C@@H]1NC(=O)[C@H](CC(C)C)N(C)C(=O)[C@H](C)NC(=O)[C@H](NC(=O)N[C@@H](CCCNC(=N)N)C(=O)O)CCCCNC1=O
IC50: 0.59 µM
